# Source: patent publication US8476265B2, “Compounds-801” (AstraZeneca AB, priority 2010, dated 2013)
# Tests used:
# [1] = biological target: T1, Adrenergic β2 (Homo sapiens, UniProt P07550); assay: Adrenergic β2 mediated cAMP production in H292 cells (AlphaScreen), concentration response; type: cell-based; details: for EC50: 60 min, 300 μM rolipram, read-out: β2 pEC50 (converted); for β2 Intrinsic Activity: fraction relative to the maximum activity determined for formoterol
# T1 construct: Adherent H292 cells are removed from tissue culture flasks by treatment with Accutase™ cell detachment solution; endogenous in cells; host or cells: H292 cells
# How it was run: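 Intracellular cAMP in lysates read by AlphaScreen, calibrated with cAMP standards; curves fitted for pEC50, with intrinsic activity as a fraction of formoterol's maximum. Agonist exposure 60 min at room temperature after 10 min rolipram (300 μM final), 1% DMSO, HEPES-buffered HBSS pH 7.4.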
# [2] = biological target: T2, human muscarinic acetylcholine M3 receptor (Homo sapiens, UniProt P20309); assay: Muscarinic 3 receptor binding assay ([3H]NMS competition, SPA), pIC50; details: [3H]NMS 0.1 nM, CHO-K1 cell membranes expressing human M3 receptor
# T2 construct: expressed in transfected cells; host or cells: CHO-K1 (Chinese Hamster Ovary) cell membranes
# How it was run: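 SPA beads precoated with human M3-expressing CHO-K1 membranes were incubated 16 h at room temperature with serially diluted compound and 0.1 nM [3H]NMS (pH 7.4 HEPES buffer, MgCl2, BSA, 1% DMSO). Atropine (1 μM) defined non-specific binding; pIC50 is the 50% reduction in specific binding.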
# T1 sequence (P07550 whole entry): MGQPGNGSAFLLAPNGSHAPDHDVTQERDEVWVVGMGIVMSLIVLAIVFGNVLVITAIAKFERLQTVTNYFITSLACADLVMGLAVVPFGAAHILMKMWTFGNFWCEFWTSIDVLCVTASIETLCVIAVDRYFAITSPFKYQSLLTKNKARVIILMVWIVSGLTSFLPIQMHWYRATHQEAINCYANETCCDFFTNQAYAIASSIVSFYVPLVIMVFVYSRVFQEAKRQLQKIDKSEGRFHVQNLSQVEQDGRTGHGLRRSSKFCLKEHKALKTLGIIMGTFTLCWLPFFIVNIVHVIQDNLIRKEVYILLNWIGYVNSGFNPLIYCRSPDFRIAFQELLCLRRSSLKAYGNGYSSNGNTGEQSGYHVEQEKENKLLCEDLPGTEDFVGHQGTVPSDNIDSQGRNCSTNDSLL
# T2 sequence (P20309 whole entry): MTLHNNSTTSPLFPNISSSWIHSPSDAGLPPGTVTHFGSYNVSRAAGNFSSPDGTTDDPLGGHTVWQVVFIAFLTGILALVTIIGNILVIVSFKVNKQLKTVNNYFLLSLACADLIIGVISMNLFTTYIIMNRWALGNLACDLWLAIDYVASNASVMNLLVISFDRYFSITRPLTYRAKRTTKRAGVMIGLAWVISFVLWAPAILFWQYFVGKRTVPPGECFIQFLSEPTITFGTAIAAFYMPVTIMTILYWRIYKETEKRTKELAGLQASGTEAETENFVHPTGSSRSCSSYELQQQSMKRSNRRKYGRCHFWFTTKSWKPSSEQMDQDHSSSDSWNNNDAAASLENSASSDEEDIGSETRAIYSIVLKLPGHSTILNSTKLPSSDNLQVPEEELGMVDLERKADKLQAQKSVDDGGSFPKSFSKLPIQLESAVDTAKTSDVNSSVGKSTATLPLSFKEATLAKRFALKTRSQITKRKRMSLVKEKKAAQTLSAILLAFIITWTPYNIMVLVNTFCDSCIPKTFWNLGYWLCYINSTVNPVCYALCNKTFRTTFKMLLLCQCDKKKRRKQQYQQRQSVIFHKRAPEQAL
Structure (SMILES),EC50 [1] [nM],β2 Intrinsic Activity [1],IC50 [2] [nM]
"CC(C)c1nc(C(=O)N2CCOC3(CCN(Cc4cccc(CCOCCC(=O)N(CCNCCc5ccc(O)c6c5OCC(=O)N6)CCC(C)(C)C)c4F)CC3)C2)cs1 [Example 17, N-(3,3-Dimethylbutyl)-3-(2-fluoro-3-((4-(2-isopropylthiazole-4-carbonyl)-1-oxa-4,9-diazaspiro[5.5]undecan-9-yl)methyl)phenethoxy)-N-(2-(2-(5-hydroxy-3-oxo-3,4-dihydro-2H-benzo[b][1,4]oxazin-8-yl)ethylamino)ethyl)propanamide ditrifluoroacetate]",50.1,1.0,0.316
"Cc1cc(C(=O)N2CCOC3(CCN(Cc4cccc(CCOCCC(=O)N(CCNCCc5ccc(O)c6c5OCC(=O)N6)C5CCCCC5)c4)CC3)C2)cs1 [Example 85, N-Cyclohexyl-N-(2-(2-(5-hydroxy-3-oxo-3,4-dihydro-2H-benzo[b][1,4]oxazin-8-yl)ethylamino)ethyl)-3-(3-((4-(5-methylthiophene-3-carbonyl)-1-oxa-4,9-diazaspiro[5.5]undecan-9-yl)methyl)phenethoxy)propanamide]",126,0.9,0.126
"CCc1nc(C(=O)N2CCOC3(CCN(CCc4ccc(CCOCCC(=O)N(CCCCCO)CCNCCc5ccc(O)c6[nH]c(=O)sc56)cc4)CC3)C2)cs1 [Example 75, 3-(4-(2-(4-(2-Ethylthiazole-4-carbonyl)-1-oxa-4,9-diazaspiro[5.5]undecan-9-yl)ethyl)phenethoxy)-N-(2-(2-(4-hydroxy-2-oxo-2,3-dihydrobenzo[d]thiazol-7-yl)ethylamino)ethyl)-N-(5-hydroxypentyl)propanamide diformate]",50.1,0.9,0.501
"CC(C)(C)c1nc(C(=O)N2CCOC3(CCN(Cc4cccc(CCOCCC(=O)N(CCNCCc5ccc(O)c6c5OCC(=O)N6)C5CCCCC5)c4)CC3)C2)cs1 [Example 86, 3-(3-((4-(2-tert-Butylthiazole-4-carbonyl)-1-oxa-4,9-diazaspiro[5.5]undecan-9-yl)methyl)phenethoxy)-N-cyclohcxyl-N-(2-(2-(5-hydroxy-3-oxo-3,4-dihydro-2H-benzo[b][1,4]oxazin-8-yl)ethylamino)ethyl)propanamide]",158,1.0,1.58
"CCN(CCNCCc1ccc(O)c2[nH]c(=O)sc12)C(=O)CCOCCc1cccc(CN2CCC3(CC2)CN(C(=O)c2csc(C(C)C)n2)CCO3)c1F [Example 10, N-Ethyl-3-(2-fluoro-3-((4-(2-isopropylthiazole-4-carbonyl)-1-oxa-4,9-diazaspiro[5.5]undecan-9-yl)methyl)phenethoxy)-N-(2-(2-(4-hydroxy-2-oxo-2,3-dihydrobenzo[d]thiazol-7-yl)ethylamino)ethyl)propanamide ditrifluoroacetate]",31.6,0.8,0.631
"CCN(CCNCCc1ccc(O)c2c1OCC(=O)N2)C(=O)CCOCCc1cccc(CN2CCC3(CC2)CN(C(=O)c2csc(C(C)C)n2)CCO3)c1F [Example 15, N-Ethyl-3-(2-fluoro-3-((4-(2-isopropylthiazole-4-carbonyl)-1-oxa-4,9-diazaspiro[5.5]undecan-9-yl)methyl)phenethoxy)-N-(2-(2-(5-hydroxy-3-oxo-3,4-dihydro-2H-benzo[b][1,4]oxazin-8-yl)ethylamino)ethyl)propanamide ditrifluoroacetate]",31.6,0.7,0.398
"CCCCc1nc(C(=O)N2CCOC3(CCN(Cc4cccc(CCOCCC(=O)N(CC)CCNCCc5ccc(O)c6c5OCC(=O)N6)c4Cl)CC3)C2)cs1 [Example 77, 3-(3-((4-(2-Butylthiazole-4-carbonyl)-1-oxa-4,9-diazaspiro[5.5]undecan-9-yl)methyl)-2-chlorophenethoxy)-N-ethyl-N-(2-(2-(5-hydroxy-3-oxo-3,4-dihydro-2H-benzo[b][1,4]oxazin-8-yl)ethylamino)ethyl)propanamide ditrifluoroacetate]",12.6,0.8,3.98
"O=C1COc2c(CCNCCN(C(=O)CCOCCc3cccc(CN4CCC5(CC4)CN(C(=O)c4csc(C6CCC6)n4)CCO5)c3)C3CCCCC3)ccc(O)c2N1 [Example 87, 3-(3-((4-(2-Cyclobutylthiazole-4-carbonyl)-1-oxa-4,9-diazaspiro[5.5]undecan-9-yl)methyl)phenethoxy)-N-cyclohexyl-N-(2-(2-(5-hydroxy-3-oxo-3,4-dihydro-2H-benzo[b][1,4]oxazin-8-yl)ethylamino)ethyl)propanamide]",158,1.0,0.2
"CCN(CCNCCc1ccc(O)c2c1OCC(=O)N2)C(=O)CCOCCc1cccc(CN2CCC3(CC2)CN(C(=O)c2csc(C(C)C)c2)CCO3)c1F [Example 74, N-Ethyl-3-(2-fluoro-3-((4-(5-isopropylthiophene-3-carbonyl)-1-oxa-4,9-diazaspiro[5.5]undecan-9-yl)methyl)phenethoxy)-N-(2-(2-(5-hydroxy-3-oxo-3,4-dihydro-2H-benzo[b][1,4]oxazin-8-yl)ethylamino)ethyl)propanamide ditrifluoroacetate]",100,0.7,0.2
"CC[C@@H](C)N(CCNCCc1ccc(O)c2c1OCC(=O)N2)C(=O)CCOCCc1cccc(CCN2CCC3(CC2)CN(C(=O)c2csc(C(C)C)n2)CCO3)c1 [Example 37, (R)—N-sec-Butyl-N-(2-(2-(5-hydroxy-3-oxo-3,4-dihydro-2H-benzo[b][1,4]oxazin-8-yl)ethylamino)ethyl)-3-(3-(2-(4-(2-isopropylthiazole-4-carbonyl)-1-oxa-4,9-diazaspiro[5.5]undecan-9-yl)ethyl)phenethoxy)propanamide ditrifluoroacetate]",10,0.9,0.794
"CC(C)c1nc(C(=O)N2CCOC3(CCN(CCc4cc(CCOCCC(=O)N(CCNCCc5ccc(O)c6c5OCC(=O)N6)C5CCCCC5)cs4)CC3)C2)cs1 [Example 63, N-Cyclohexyl-N-(2-(2-(5-hydroxy-3-oxo-3,4-dihydro-2H-benzo[b][1,4]oxazin-8-yl)ethylamino)ethyl)-3-(2-(5-(2-(4-(2-isopropylthiazole-4-carbonyl)-1-oxa-4,9-diazaspiro[5.5]undecan-9-yl)ethyl)thiophen-3-yl)ethoxy)propanamide ditrifluoroacetate]",158,1.1,2
"CC(C)c1ccc(C(=O)N2CCOC3(CCN(Cc4cccc(CCOCCC(=O)N(CCNCCc5ccc(O)c6c5OCC(=O)N6)C5CCCCC5)c4)CC3)C2)s1 [Example 90, N-Cyclohexyl-N-(2-(2-(5-hydroxy-3-oxo-3,4-dihydro-2H-benzo[b][1,4]oxazin-8-yl)ethylamino)ethyl)-3-(3-((4-(5-isopropylthiophene-2-carbonyl)-1-oxa-4,9-diazaspiro[5.5]undecan-9-yl)methyl)phenethoxy)propanamide]",251,1.0,0.501
"Cc1nc(C(=O)N2CCOC3(CCN(Cc4cccc(CCOCCC(=O)N(CCNCCc5ccc(O)c6[nH]c(=O)ccc56)C5CCCCC5)c4)CC3)C2)cs1 [Example 42, N-Cyclohexyl-N-(2-(2-(8-hydroxy-2-oxo-1,2-dihydroquinolin-5-yl)ethylamino)ethyl)-3-(3-((4-(2-methylthiazole-4-carbonyl)-1-oxa-4,9-diazaspiro[5.5]undecan-9-yl)methyl)phenethoxy)propanamide ditrifluoroacetate]",398,1.0,< 0.0316
"CCc1cc(C(=O)N2CCOC3(CCN(Cc4cccc(CCOCCC(=O)N(CC)CCNCCc5ccc(O)c6c5OCC(=O)N6)c4F)CC3)C2)cs1 [Example 24, N-Ethyl-3-(3-((4-(5-ethylthiophene-3-carbonyl)-1-oxa-4,9-diazaspiro[5.5]undecan-9-yl)methyl)-2-fluorophenethoxy)-N-(2-(2-(5-hydroxy-3-oxo-3,4-dihydro-2H-benzo[b][1,4]oxazin-8-yl)ethylamino)ethyl)propanamide ditrifluoroacetate]",79.4,0.9,1
"CCCC[C@@H](C)N(CCNCCc1ccc(O)c2c1OCC(=O)N2)C(=O)CCOCCc1cccc(CCN2CCC3(CC2)CN(C(=O)c2csc(C)n2)CCO3)c1 [Example 38, (R)—N-(Hexan-2-yl)-N-(2-(2-(5-hydroxy-3-oxo-3,4-dihydro-2H-benzo[b][1,4]oxazin-8-yl)ethylamino)ethyl)-3-(3-(2-(4-(2-methylthiazole-4-carbonyl)-1-oxa-4,9-diazaspiro[5.5]undecan-9-yl)ethyl)phenethoxy)propanamide ditrifluoroacetate]",15.8,1.0,0.398
"CC(C)c1nc(C(=O)N2CCOC3(CCN(Cc4cccc(CCOCCC(=O)N(CCNCCc5ccc(O)c6c5OCC(=O)N6)C5CCCCCC5)c4F)CC3)C2)cs1 [Example 7, N-Cycloheptyl-3-(2-fluoro-3-((4-(2-isopropylthiazole-4-carbonyl)-1-oxa-4,9-diazaspiro[5.5]undecan-9-yl)methyl)phenethoxy)-N-(2-(2-(5-hydroxy-3-oxo-3,4-dihydro-2H-benzo[b][1,4]oxazin-8-yl)ethylamino)ethyl)propanamide ditrifluoroacetate]",39.8,1.0,0.631
